Source: patent publication US8273754B2, “Substituted 1H-pyrazolo[3,4-D]pyrimidine-6-amine compounds” (ArQule, Inc., priority 2008, dated 2012)
Read-outs that look alike come from different tables or passages of the source.

Experiments:
FGFR2 (N549H) = biological target: T1, FGFR2 (N549H) (Homo sapiens, UniProt P21802, N549H); test: fluorescent ELISA assay for inhibitors of FGFR2 kinase; format: biochemical; conditions: Pyk2 peptide substrate, 60 minutes
T1 construct: purchased Millipore 14-742
How it was run: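 FGFR2 enzyme (0.5 μM) phosphorylates biotinylated Pyk2 peptide (37 μM) with 12.5 μM ATP added, in Tris-HCl buffer containing 10 mM MgCl2, 2 mM DTT and 75 μM ATP, for 60 min. Peptide captured on streptavidin 30 min at room temperature; phosphotyrosine detected by antibody, alkaline phosphatase secondary and Attophos fluorescence (ex 400/em 595 nm). Inhibition seen as signal decrease.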

cancer cells = test: MTS cell growth inhibition assay (72 hours); format: cell-based
How it was run: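 Cells in DMEM with 1% FBS, seeded 18 h, then compound-treated 72 h at 37 °C. Viability by MTS/PMS for 4 h, formazan absorbance at 492 nm; IC50 taken as concentration giving 50% absorbance drop, activity banded by percent inhibition.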

[1] = Homo sapiens, DLD-1, 72 h, DLD-1 cells, read-out: DLD-1 MTS 72 hr at 10 μM
[2] = Homo sapiens, KATO III, 72 h, KATO III cells, read-out: KATO III MTS 72 hr at 10 μM
[3] = Homo sapiens, MDA-MB-231, 72 h, MDA-MB-231 cells, read-out: MDA-MB-231 MTS 72 hr at 10 μM
[4] = Homo sapiens, NCI-H1299, 72 h, NCI-H1299 cells, read-out: NCI-H1299 MTS 72 hr at 10 μM
[5] = PaCa-2, 72 h, PACA-2 cells, read-out: PACA-2 MTS 72 hr at 10 μM

T1 sequence (P21802 22-821 N549H): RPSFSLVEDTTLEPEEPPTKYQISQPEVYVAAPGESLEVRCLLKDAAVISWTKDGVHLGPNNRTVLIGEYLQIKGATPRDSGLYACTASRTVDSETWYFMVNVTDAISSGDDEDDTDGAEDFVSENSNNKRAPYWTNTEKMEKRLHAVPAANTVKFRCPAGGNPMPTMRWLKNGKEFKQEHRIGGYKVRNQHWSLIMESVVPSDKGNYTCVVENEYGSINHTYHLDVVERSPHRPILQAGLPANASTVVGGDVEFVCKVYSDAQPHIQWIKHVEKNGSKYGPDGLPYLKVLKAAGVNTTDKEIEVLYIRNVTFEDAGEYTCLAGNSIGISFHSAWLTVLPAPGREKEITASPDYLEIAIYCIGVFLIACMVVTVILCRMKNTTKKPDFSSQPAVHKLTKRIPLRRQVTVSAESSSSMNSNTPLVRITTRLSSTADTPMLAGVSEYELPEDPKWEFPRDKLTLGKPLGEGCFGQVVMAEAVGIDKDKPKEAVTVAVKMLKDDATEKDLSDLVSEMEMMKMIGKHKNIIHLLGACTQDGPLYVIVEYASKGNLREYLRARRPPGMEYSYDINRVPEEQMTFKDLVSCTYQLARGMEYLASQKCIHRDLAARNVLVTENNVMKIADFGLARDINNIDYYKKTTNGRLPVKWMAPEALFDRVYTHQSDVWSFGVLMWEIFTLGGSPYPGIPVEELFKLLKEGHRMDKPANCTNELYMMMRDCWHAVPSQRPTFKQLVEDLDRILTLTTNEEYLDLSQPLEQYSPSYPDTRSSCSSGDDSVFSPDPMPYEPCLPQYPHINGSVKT

Nc1nc(NC2Cc3ccccc3N(Cc3cccc(-c4ccccc4)c3)C2)c2cn[nH]c2n1 (centres unmarked) [Compound 224, N4-(1-(biphenyl-3-ylmethyl)-1,2,3,4-tetrahydroquinolin-3-yl)-1H-pyrazolo[3,4-d]pyrimidine-4,6-diamine]
IC50 (FGFR2 (N549H)): 19.3 µM
inhibition at 10 µM (cancer cells; [1]): > 79%
inhibition at 10 µM (cancer cells; [2]): > 79%
inhibition at 10 µM (cancer cells; [3]): < 50%
inhibition at 10 µM (cancer cells; [4]): > 79%
inhibition at 10 µM (cancer cells; [5]): > 79%
melting point: 128 to 132 °C

Nc1nc(NC2Cc3ccccc3N(S(=O)(=O)c3ccc(Cl)cc3Cl)C2)c2cn[nH]c2n1 (centres unmarked) [Compound 14, N^4-(1-(2,4-dichlorophenylsulfonyl)-1,2,3,4-tetrahydroquinolin-3-yl)-1H-pyrazolo[3,4-d]pyrimidine-4,6-diamine]
IC50 (FGFR2 (N549H)): 0.23 µM
inhibition at 10 µM (cancer cells; [1]): < 50%
inhibition at 10 µM (cancer cells; [2]): 50 to 79%
inhibition at 10 µM (cancer cells; [3]): < 50%
inhibition at 10 µM (cancer cells; [4]): < 50%
inhibition at 10 µM (cancer cells; [5]): < 50%
melting point: 153 to 163 °C

Nc1nc(NC2Cc3ccccc3N(Cc3cccc(C(F)(F)F)c3)C2)c2cn[nH]c2n1 (centres unmarked) [Compound 5, N^4-(1-(3-(trifluoromethyl)benzyl)-1,2,3,4-tetrahydroquinolin-3-yl)-1H-pyrazolo[3,4-d]pyrimidine-4,6-diamine]
IC50 (FGFR2 (N549H)): 10.7 µM
inhibition at 10 µM (cancer cells; [1]): < 50%
inhibition at 10 µM (cancer cells; [2]): 50 to 79%
inhibition at 10 µM (cancer cells; [3]): < 50%
inhibition at 10 µM (cancer cells; [4]): < 50%
inhibition at 10 µM (cancer cells; [5]): < 50%
melting point: 89 to 94 °C

Nc1nc(N[C@H]2Cc3ccccc3N(Cc3ccc(F)cc3)C2)c2cn[nH]c2n1 [Compound 8, N^4-((3S)-1-(4-fluorobenzyl)-1,2,3,4-tetrahydroquinolin-3-yl)-1H-pyrazolo[3,4-d]pyrimidine-4,6-diamine]
IC50 (FGFR2 (N549H)): 11 µM
inhibition at 10 µM (cancer cells; [1]): > 79%
inhibition at 10 µM (cancer cells; [2]): > 79%
inhibition at 10 µM (cancer cells; [3]): < 50%
inhibition at 10 µM (cancer cells; [4]): < 50%
inhibition at 10 µM (cancer cells; [5]): < 50%
melting point: 78 to 80 °C

Nc1nc(NC2Cc3ccccc3N(Cc3ccc(F)cc3F)C2)c2cn[nH]c2n1 (centres unmarked) [Compound 1, N^4-(1-(2,4-difluorobenzyl)-1,2,3,4-tetrahydroquinolin-3-yl)-1H-pyrazolo[3,4-d]pyrimidine-4,6-diamine]
IC50 (FGFR2 (N549H)): 1.81 µM
inhibition at 10 µM (cancer cells; [1]): > 79%
inhibition at 10 µM (cancer cells; [2]): > 79%
inhibition at 10 µM (cancer cells; [3]): < 50%
inhibition at 10 µM (cancer cells; [4]): 50 to 79%
inhibition at 10 µM (cancer cells; [5]): 50 to 79%
melting point: 110 to 114 °C

Nc1nc(NC2Cc3ccccc3N(c3ccccc3)C2)c2cn[nH]c2n1 (centres unmarked) [Compound 11, N^4-(1-phenyl-1,2,3,4-tetrahydroquinolin-3-yl)-1H-pyrazolo[3,4-d]pyrimidine-4,6-diamine]
IC50 (FGFR2 (N549H)): 2.08 µM
inhibition at 10 µM (cancer cells; [1]): < 50%
inhibition at 10 µM (cancer cells; [2]): < 50%
inhibition at 10 µM (cancer cells; [3]): < 50%
inhibition at 10 µM (cancer cells; [4]): < 50%
inhibition at 10 µM (cancer cells; [5]): < 50%
melting point: 88 to 92 °C

Nc1nc(NC2Cc3ccccc3N(C(=O)c3ccc(Cl)cc3Cl)C2)c2cn[nH]c2n1 (centres unmarked) [Compound 13, (3-(6-amino-1H-pyrazolo[3,4-d]pyrimidin-4-ylamino)-3,4-dihydroquinolin-1(2H)-yl)(2,4-dichlorophenyl)methanone]
IC50 (FGFR2 (N549H)): 17.9 µM
inhibition at 10 µM (cancer cells; [1]): < 50%
inhibition at 10 µM (cancer cells; [2]): < 50%
inhibition at 10 µM (cancer cells; [3]): < 50%
inhibition at 10 µM (cancer cells; [4]): < 50%
inhibition at 10 µM (cancer cells; [5]): < 50%
melting point: 165 to 173 °C

Nc1nc(NC2Cc3ccccc3N(CCc3ccccc3)C2)c2cn[nH]c2n1 (centres unmarked) [Compound 2, N^4-(1-(2-phenylethyl)-1,2,3,4-tetrahydroquinolin-3-yl)-1H-pyrazolo[3,4-d]pyrimidine-4,6-diamine]
IC50 (FGFR2 (N549H)): 0.17 µM
inhibition at 10 µM (cancer cells; [1]): 50 to 79%
inhibition at 10 µM (cancer cells; [2]): 50 to 79%
inhibition at 10 µM (cancer cells; [3]): < 50%
inhibition at 10 µM (cancer cells; [4]): 50 to 79%
inhibition at 10 µM (cancer cells; [5]): < 50%
melting point: 117 to 122 °C

Nc1nc(N[C@@H]2Cc3ccccc3N(Cc3ccc(F)cc3)C2)c2cn[nH]c2n1 [Compound 9, (R)—N4-(1-(4-fluorobenzyl)-1,2,3,4-tetrahydroquinolin-3-yl)-1H-pyrazolo[3,4-d]pyrimidine-4,6-diamine]
IC50 (FGFR2 (N549H)): 0.22 µM
inhibition at 10 µM (cancer cells; [1]): 50 to 79%
inhibition at 10 µM (cancer cells; [2]): > 79%
inhibition at 10 µM (cancer cells; [3]): < 50%
inhibition at 10 µM (cancer cells; [4]): 50 to 79%
inhibition at 10 µM (cancer cells; [5]): 50 to 79%
melting point: 140 to 143 °C

Nc1nc(NC2Cc3ccccc3N(Cc3ccc(Cl)cc3Cl)C2)c2cn[nH]c2n1 (centres unmarked) [Compound 4, N^4-(1-(2,4-dichlorobenzyl)-1,2,3,4-tetrahydroquinolin-3-yl)-1H-pyrazolo[3,4-d]pyrimidine-4,6-diamine]
IC50 (FGFR2 (N549H)): 3.06 µM
inhibition at 10 µM (cancer cells; [1]): > 79%
inhibition at 10 µM (cancer cells; [2]): > 79%
inhibition at 10 µM (cancer cells; [3]): > 79%
inhibition at 10 µM (cancer cells; [4]): > 79%
inhibition at 10 µM (cancer cells; [5]): > 79%
melting point: 170 to 174 °C

Nc1nc(NC2Cc3ccccc3N(C(=O)c3ccccc3)C2)c2cn[nH]c2n1 (centres unmarked) [Compound 12, (3-(6-amino-1H-pyrazolo[3,4-d]pyrimidin-4-ylamino)-3,4-dihydroquinolin-1(2H)-yl)(phenyl)methanone]
IC50 (FGFR2 (N549H)): 21 µM
inhibition at 10 µM (cancer cells; [1]): < 50%
inhibition at 10 µM (cancer cells; [2]): < 50%
inhibition at 10 µM (cancer cells; [3]): < 50%
inhibition at 10 µM (cancer cells; [4]): < 50%
inhibition at 10 µM (cancer cells; [5]): < 50%
melting point: 155 to 164 °C

Cn1ccc(S(=O)(=O)N2CC(Nc3nc(N)nc4[nH]ncc34)Cc3ccccc32)n1 (centres unmarked) [Compound 54, N4-(1-(1-methyl-1H-pyrazol-3-ylsulfonyl)-1,2,3,4-tetrahydroquinolin-3-yl)-1H-pyrazolo[3,4-d]pyrimidine-4,6-diamine]
IC50 (FGFR2 (N549H)): > 30 µM
inhibition at 10 µM (cancer cells; [1]): < 50%
inhibition at 10 µM (cancer cells; [2]): < 50%
inhibition at 10 µM (cancer cells; [3]): < 50%
inhibition at 10 µM (cancer cells; [4]): < 50%
inhibition at 10 µM (cancer cells; [5]): < 50%
